Tests used:
A20 gene = experiment: ChIP of Pol II and Spt5 occupancy of the A20 gene; assay type: cell-based, human; conditions: for TNFα induction of Pol II and Spt5 levels at the A20 loci: TNFα+ 30 minutes; for Spt5 and Pol II occupancy at 3 loci of the A20 gene: basal conditions (TNFα-)
Description: Chromatin immunoprecipitation (ChIP)—HeLa cells were treated with DMSO (vehicle control) or the indicated compound (50 μM; 60 minutes), followed by TNF-α induction (30 minutes) in 100-mm plates. Following, the cells were cross-linked with 1% formaldehyde for 10 minutes at room temperature, and fixation was terminated by adding 1/20 volume of 2.5 M glycine.
Chromatin extraction and immunoprecipitation were carried out as previously described in Diamant et al., 2012. For immunoprecipitation (IP), 3 μg of anti-RNA polymerase II (ab817, Abcam) anti-Spt5 [previously described in Amir-Zilberstein et al., 2007] or control IgG (SC-2025, Santa Cruz Biotechnology) was added to 1 ml of the soluble chromatin DNA. IP and input samples were analyzed by qPCR as described above.
To further examine the impact of the identified SPIs on chromatin occupancy of Spt5 and Pol II, chromatin immunoprecipitation (ChIP) in the presence of DMSO, SPI-21 or SP-18 followed by 30 minutes TNFα treatment was performed. […] This finding is consistent with the increase in transcription under basal conditions exerted by SPI-21 but not by SPI-18 (FIG. 2A). Upon TNFα induction the levels of Pol II and Spt5 were dramatically elevated and this induction was diminished by both SPI-21 and SPI-18 at all the analyzed loci (FIG. 3G, TNFα+). This finding is consistent with the decrease in transcription under TNFα-induced conditions of both SPI-21 and SIP-18 (FIG. 3A).

His-Spt5 (fused to Spt4) = molecular target: T1, His-Spt5 (fused to Spt4) (Homo sapiens, UniProt O00267); experiment: Binding assay by intrinsic fluorescence of purified His-Spt5 (fused to Spt4)
T1 construct: His-Rpb1 and His-Spt5 (fused to Spt4 to increase its stability) were each expressed in E. coli; Spt4 (fusion partner); His tag (N); made in house; host or cells: E. coli; purified on nickel agarose beads
Description: (§1) Binding assay—In order to measure binding of the indicated compound to Spt5 and/or Pol II; Spt5-Spt4 or Rpb1 fused to a histidine (His) tag were expressed in E. coli (SEQ ID Nos: 2-3, 5-6 and 81) and purified on nickel agarose beads as described in Ashkenazi et al. 2016. The proteins were incubated for 10 minutes with increasing concentrations of the indicated compound in a black 384 wells microplate in a total volume of 20 μl. Binding was assessed by measuring the changes in the intrinsic fluorescence (280 nm) using Cytation™ 5 (BioTek).
(§2) Two identified compounds, SPI-21 and SPI-18, were further validated for their direct interaction with either Spt5 or Rpb1 CC domain. […] Using the purified proteins, fluorescence intensity measurements were performed in the presence of increasing concentrations of SPI-21 or SPI-18. This method analyzes binding by monitoring the changes in the intrinsic fluorescence of the proteins as a consequence of conformational changes. […]
(§3) Direct interaction with either the Spt5 or the Rpb1 CC domain of SPI-21 and SPI-18 was further validated. […] Using the purified proteins, fluorescence intensity measurements were performed in the presence of increasing concentrations of SPI-21 and SPI-18. This method analyzes binding by monitoring the changes in the intrinsic fluorescence of the proteins as a consequence of conformational changes. […]

[1] = tested on: replication-dependent histone genes; experiment: Histone gene levels after 24 hours, cDNA with random hexamers, qPCR; assay type: cell-based, human
Description: A schematic illustration of a histone gene structure is shown on the top. For polyA+ RNA analysis, cDNA was prepared with a poly-dT oligonucleotide. In each analysis the levels were normalized to GAPDH; and the bars present the mean of 3±SEM independent experiments. * P<0.05 relative to DMSO (vehicle control). […] The data represent the means±SEMs of 3 independent experiments. The asterisks denote statistically significant differences relative to DMSO; according to Student's t tests (typically one-tailed, paired): *p<0.05; **p<0.01; ***p<0.005.
Since the RNA-seq following treatment with SPI-21 detects only polyadenylated transcripts and the treatment was effected for 2 hours, during which only a fraction of cells is in S-phase, an effect on histone genes was not found. Thus, to investigate further the regulation of histone genes by Spt5 using the identified SPIs, cells were treated for 24 hours with SPI-21 or SPI-18, to allow all cells to pass S-phase at least once. Following, mRNA was extracted and cDNA was prepared using random hexamers and the levels of 4 histone genes were determined. […] To this end, cDNA prepared by random hexamer and Poly-T the ratio between total and poly-A tailed histone genes was determined. […]

[2] = molecular target: T2, Rpb1 CC domain (His-Rpb1) (Homo sapiens, UniProt P24928); experiment: Binding assay by intrinsic fluorescence of purified His-Rpb1; conditions: read-out: IC50, decrease of intrinsic fluorescence of Rpb1 (Pol II)
T2 construct: His tag; made in house; host or cells: E. coli; purified on nickel agarose beads
T2 sequence (P24928 8-370): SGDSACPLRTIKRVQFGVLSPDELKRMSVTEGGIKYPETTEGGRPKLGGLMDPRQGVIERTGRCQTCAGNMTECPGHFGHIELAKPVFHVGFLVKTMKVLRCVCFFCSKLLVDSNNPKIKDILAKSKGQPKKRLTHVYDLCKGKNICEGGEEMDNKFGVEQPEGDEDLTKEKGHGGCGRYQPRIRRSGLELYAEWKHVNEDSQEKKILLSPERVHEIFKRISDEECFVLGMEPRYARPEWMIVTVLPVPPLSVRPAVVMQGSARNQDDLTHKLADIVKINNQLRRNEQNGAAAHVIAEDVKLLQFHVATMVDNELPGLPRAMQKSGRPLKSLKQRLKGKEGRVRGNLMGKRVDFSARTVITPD
Description: as §1, §2, §3

SMILES | TNFα induction of Pol II and Spt5 levels at the A20 loci (A20 gene) | Spt5 and Pol II occupancy at 3 loci of the A20 gene (A20 gene) | effect on intrinsic fluorescence of Spt5 (His-Spt5 (fused to Spt4)) | expression of the selected histone genes [1] | IC50 [2] [µM] | IC50 (His-Spt5 (fused to Spt4)) [µM]
COc1ccc(C=CC(=O)c2cc(O)ccc2O)cc1 [SPI-21] | diminished | moderate but significant enhancement | no significant effect | diminished expression of the selected histone genes | 23 | 
Nc1ccccc1SC(CC(=O)c1cccs1)c1cccs1 (stereo not shown) [SPI-18] | diminished | unchanged |  | diminished expression of the selected histone genes | 76 | 40
